Laboratory results taken from PubChem BioAssay AID1963832 (Molecular Pharmacology Branch, DTP, NCI, 2024).

System: 885724-159-R-J1-PDC complex spheroid viability
Assay: Anticancer human tumor 885724-159-R-J1-PDC patient-derived pancreatic adenocarcinoma cell line growth inhibition [POLQ]
Details: for IC50: curve of first compound; for viability, T/C: stronger effect = lower value
In short: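 Three-cell-type spheroids modelling solid tumor plus stroma served as the readout system; POL inhibitors were tested individually and in combination, concentration ranges set by clinical Cmax where known.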

[1] = second compound 0.0316 µM, first compound 0.0316 µM
[2] = second compound 0.0316 µM, first compound 0.1 µM
[3] = second compound 0.0316 µM, first compound 0.316 µM
[4] = second compound 0.0316 µM, first compound 1 µM
[5] = second compound 0.0316 µM, first compound 3.16 µM
[6] = second compound 0.0316 µM, first compound 10 µM
[7] = second compound 0.1 µM, first compound 0.0316 µM
[8] = second compound 0.1 µM, first compound 0.1 µM
[9] = second compound 0.1 µM, first compound 0.316 µM
[10] = second compound 0.1 µM, first compound 1 µM
[11] = second compound 0.1 µM, first compound 3.16 µM
[12] = second compound 0.1 µM, first compound 10 µM
[13] = second compound 0.316 µM, first compound 0.0316 µM
[14] = second compound 0.316 µM, first compound 0.1 µM
[15] = second compound 0.316 µM, first compound 0.316 µM
[16] = second compound 0.316 µM, first compound 1 µM
[17] = second compound 0.316 µM, first compound 3.16 µM
[18] = second compound 0.316 µM, first compound 10 µM
[19] = second compound 1 µM, first compound 0.0316 µM
[20] = second compound 1 µM, first compound 0.1 µM
[21] = second compound 1 µM, first compound 0.316 µM
[22] = second compound 1 µM, first compound 1 µM
[23] = second compound 1 µM, first compound 3.16 µM
[24] = second compound 1 µM, first compound 10 µM
[25] = second compound 3.16 µM, first compound 0.0316 µM
[26] = second compound 3.16 µM, first compound 0.1 µM
[27] = second compound 3.16 µM, first compound 0.316 µM
[28] = second compound 3.16 µM, first compound 1 µM
[29] = second compound 3.16 µM, first compound 3.16 µM
[30] = second compound 3.16 µM, first compound 10 µM
[31] = second compound 10 µM, first compound 0.0316 µM
[32] = second compound 10 µM, first compound 0.1 µM
[33] = second compound 10 µM, first compound 0.316 µM
[34] = second compound 10 µM, first compound 1 µM
[35] = second compound 10 µM, first compound 3.16 µM
[36] = second compound 10 µM, first compound 10 µM
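Further: spheroids exposed to compounds for 7 days.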

## CC1COCCN1c1cc(-c2ccnn2C)c2ccnc(-c3ccn[nH]3)c2n1 (stereo unspecified) + COC1C(OC(N)=O)C(O)C(Oc2ccc3c(O)c(NC(=O)c4ccc(O)c(CC=C(C)C)c4)c(=O)oc3c2C)OC1(C)C
Second compound 0.0316 µM
  IC50: 0.229 µM
Second compound 0.1 µM
  IC50: 0.211 µM
Second compound 0.316 µM
  IC50: 0.169 µM
Second compound 1 µM
  IC50: 0.188 µM
Second compound 3.16 µM
  IC50: 0.189 µM
Second compound 10 µM
  IC50: 0.247 µM
[1]
  viability, T/C: 78.3%
[2]
  viability, T/C: 63.8%
[3]
  viability, T/C: 44.3%
[4]
  viability, T/C: 42.1%
[5]
  viability, T/C: 39%
[6]
  viability, T/C: 39.3%
[7]
  viability, T/C: 76.5%
[8]
  viability, T/C: 64.3%
[9]
  viability, T/C: 41.6%
[10]
  viability, T/C: 41.5%
[11]
  viability, T/C: 35.2%
[12]
  viability, T/C: 35.6%
[13]
  viability, T/C: 81.1%
[14]
  viability, T/C: 53.8%
[15]
  viability, T/C: 44.3%
[16]
  viability, T/C: 43.5%
[17]
  viability, T/C: 43.3%
[18]
  viability, T/C: 36.2%
[19]
  viability, T/C: 84.1%
[20]
  viability, T/C: 55.8%
[21]
  viability, T/C: 43.6%
[22]
  viability, T/C: 43.7%
[23]
  viability, T/C: 41%
[24]
  viability, T/C: 33.5%
[25]
  viability, T/C: 76.4%
[26]
  viability, T/C: 55.9%
[27]
  viability, T/C: 45.5%
[28]
  viability, T/C: 37.8%
[29]
  viability, T/C: 37.8%
[30]
  viability, T/C: 33.8%
[31]
  viability, T/C: 77.1%
[32]
  viability, T/C: 57.6%
[33]
  viability, T/C: 48.2%
[34]
  viability, T/C: 41.1%
[35]
  viability, T/C: 38.9%
[36]
  viability, T/C: 34.4%

## CC1COCCN1c1cc(C2(S(C)(=N)=O)CC2)nc(-c2ccnc3[nH]ccc23)n1 (stereo unspecified) + COC1C(OC(N)=O)C(O)C(Oc2ccc3c(O)c(NC(=O)c4ccc(O)c(CC=C(C)C)c4)c(=O)oc3c2C)OC1(C)C
Second compound 0.0316 µM
  IC50: 6.58 µM
Second compound 0.1 µM
  IC50: 7.53 µM
Second compound 0.316 µM
  IC50: 4.74 µM
Second compound 1 µM
  IC50: 3.83 µM
Second compound 3.16 µM
  IC50: 5.46 µM
Second compound 10 µM
  IC50: 5.74 µM
[1]
  viability, T/C: 95.9%
[2]
  viability, T/C: 96.8%
[3]
  viability, T/C: 93%
[4]
  viability, T/C: 67.8%
[5]
  viability, T/C: 60.3%
[6]
  viability, T/C: 44.6%
[7]
  viability, T/C: 102%
[8]
  viability, T/C: 89.7%
[9]
  viability, T/C: 95.4%
[10]
  viability, T/C: 73.6%
[11]
  viability, T/C: 59.1%
[12]
  viability, T/C: 47%
[13]
  viability, T/C: 87.5%
[14]
  viability, T/C: 98%
[15]
  viability, T/C: 95.9%
[16]
  viability, T/C: 68.7%
[17]
  viability, T/C: 56.5%
[18]
  viability, T/C: 43.9%
[19]
  viability, T/C: 101%
[20]
  viability, T/C: 102%
[21]
  viability, T/C: 89%
[22]
  viability, T/C: 72%
[23]
  viability, T/C: 49.1%
[24]
  viability, T/C: 45.5%
[25]
  viability, T/C: 102%
[26]
  viability, T/C: 85.6%
[27]
  viability, T/C: 91.3%
[28]
  viability, T/C: 72.6%
[29]
  viability, T/C: 54.8%
[30]
  viability, T/C: 43.9%
[31]
  viability, T/C: 111%
[32]
  viability, T/C: 92.2%
[33]
  viability, T/C: 94.1%
[34]
  viability, T/C: 72.7%
[35]
  viability, T/C: 51.7%
[36]
  viability, T/C: 47%

## CCCS(=O)(=O)Nc1ccc(F)c(C(=O)c2c[nH]c3ncc(-c4ccc(Cl)cc4)cc23)c1F + COC1C(OC(N)=O)C(O)C(Oc2ccc3c(O)c(NC(=O)c4ccc(O)c(CC=C(C)C)c4)c(=O)oc3c2C)OC1(C)C
Second compound 0.0316 µM
  IC50: > 10 µM
Second compound 0.1 µM
  IC50: > 10 µM
Second compound 0.316 µM
  IC50: > 10 µM
Second compound 1 µM
  IC50: > 10 µM
Second compound 3.16 µM
  IC50: > 10 µM
Second compound 10 µM
  IC50: > 10 µM
[1]
  viability, T/C: 106%
[2]
  viability, T/C: 114%
[3]
  viability, T/C: 140%
[4]
  viability, T/C: 148%
[5]
  viability, T/C: 137%
[6]
  viability, T/C: 65.9%
[7]
  viability, T/C: 109%
[8]
  viability, T/C: 114%
[9]
  viability, T/C: 130%
[10]
  viability, T/C: 157%
[11]
  viability, T/C: 143%
[12]
  viability, T/C: 67.8%
[13]
  viability, T/C: 104%
[14]
  viability, T/C: 121%
[15]
  viability, T/C: 131%
[16]
  viability, T/C: 163%
[17]
  viability, T/C: 137%
[18]
  viability, T/C: 76.6%
[19]
  viability, T/C: 108%
[20]
  viability, T/C: 107%
[21]
  viability, T/C: 123%
[22]
  viability, T/C: 145%
[23]
  viability, T/C: 139%
[24]
  viability, T/C: 68.1%
[25]
  viability, T/C: 110%
[26]
  viability, T/C: 103%
[27]
  viability, T/C: 122%
[28]
  viability, T/C: 154%
[29]
  viability, T/C: 151%
[30]
  viability, T/C: 82.4%
[31]
  viability, T/C: 111%
[32]
  viability, T/C: 114%
[33]
  viability, T/C: 128%
[34]
  viability, T/C: 139%
[35]
  viability, T/C: 152%
[36]
  viability, T/C: 76.3%
